What was measured:
Assay type in all cases: biochemical
[1] = molecular target: CLK2 (Homo sapiens (Human), UniProt P49760); assay: Inhibition of CLK2 kinase activity evaluated at Nanosyn (ADP-Glo); settings: ADP-Glo luminescence
Outline: (§1)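 ADP-Glo luminescence read-out of ADP produced by each kinase acting on substrate, with ATP added to start the reaction. Buffer: 100 mM HEPES pH 7.5, 5 mM MgCl2, Triton X-100, BSA, DTT, phosphatase inhibitors; DMSO 1%. Inhibition calculated against no-inhibitor and no-enzyme controls.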

[2] = molecular target: EGFR L858R/T790M mutant (Homo sapiens (Human), UniProt P00533, L858R/T790M); assay: HotSpot radiometric kinase assay, EGFR L858R/T790M mutant; settings: 10 μM ATP
Outline: (§2)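 Radiometric filter-binding read-out: incorporated 33P was retained on P81 ion-exchange paper after washing away unbound phosphate. Reactions ran 120 min at room temperature with 10 μM final ATP, following ~20 min compound preincubation in Hepes pH 7.5 buffer containing 1% DMSO. IC50 from fitted curves.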

[3] = molecular target: CLK3 (Homo sapiens (Human), UniProt P49761); assay: Inhibition of CLK3 kinase activity evaluated at Nanosyn (ADP-Glo); settings: ADP-Glo luminescence
Outline: as §1

[4] = molecular target: EGFR (D770_N771insNPG) (Homo sapiens (Human), UniProt P00533, INS770NPG); assay: HotSpot radiometric kinase assay, EGFR (D770_N771insNPG); settings: 10 μM ATP, read-out: EGFR (Δ770_N771insNPG) IC50
Sequence of EGFR (D770_N771insNPG) (P00533 other isoform, or with tags, fused parts or gaps del 1-668/ins NPG behind 770 limits assumed): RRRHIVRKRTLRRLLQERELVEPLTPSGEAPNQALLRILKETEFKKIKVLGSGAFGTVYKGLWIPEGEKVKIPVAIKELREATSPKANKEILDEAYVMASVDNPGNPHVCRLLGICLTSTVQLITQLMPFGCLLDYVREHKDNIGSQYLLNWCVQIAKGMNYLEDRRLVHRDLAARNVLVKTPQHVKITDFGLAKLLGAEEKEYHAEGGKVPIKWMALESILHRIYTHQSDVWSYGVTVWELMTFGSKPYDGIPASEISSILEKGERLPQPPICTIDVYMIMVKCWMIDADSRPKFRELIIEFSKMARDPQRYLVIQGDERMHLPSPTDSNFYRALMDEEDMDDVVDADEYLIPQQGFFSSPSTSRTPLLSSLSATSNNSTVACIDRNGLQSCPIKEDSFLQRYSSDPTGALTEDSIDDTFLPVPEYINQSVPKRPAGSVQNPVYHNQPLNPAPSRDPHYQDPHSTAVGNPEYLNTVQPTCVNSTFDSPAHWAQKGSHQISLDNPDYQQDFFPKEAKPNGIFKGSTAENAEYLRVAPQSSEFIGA
Outline: as §2

[5] = molecular target: EGFR L858R mutant (Homo sapiens (Human), UniProt P00533, L858R); assay: HotSpot radiometric kinase assay, EGFR L858R mutant; settings: 10 μM ATP
Sequence of EGFR L858R mutant (P00533 25-1210 L858R): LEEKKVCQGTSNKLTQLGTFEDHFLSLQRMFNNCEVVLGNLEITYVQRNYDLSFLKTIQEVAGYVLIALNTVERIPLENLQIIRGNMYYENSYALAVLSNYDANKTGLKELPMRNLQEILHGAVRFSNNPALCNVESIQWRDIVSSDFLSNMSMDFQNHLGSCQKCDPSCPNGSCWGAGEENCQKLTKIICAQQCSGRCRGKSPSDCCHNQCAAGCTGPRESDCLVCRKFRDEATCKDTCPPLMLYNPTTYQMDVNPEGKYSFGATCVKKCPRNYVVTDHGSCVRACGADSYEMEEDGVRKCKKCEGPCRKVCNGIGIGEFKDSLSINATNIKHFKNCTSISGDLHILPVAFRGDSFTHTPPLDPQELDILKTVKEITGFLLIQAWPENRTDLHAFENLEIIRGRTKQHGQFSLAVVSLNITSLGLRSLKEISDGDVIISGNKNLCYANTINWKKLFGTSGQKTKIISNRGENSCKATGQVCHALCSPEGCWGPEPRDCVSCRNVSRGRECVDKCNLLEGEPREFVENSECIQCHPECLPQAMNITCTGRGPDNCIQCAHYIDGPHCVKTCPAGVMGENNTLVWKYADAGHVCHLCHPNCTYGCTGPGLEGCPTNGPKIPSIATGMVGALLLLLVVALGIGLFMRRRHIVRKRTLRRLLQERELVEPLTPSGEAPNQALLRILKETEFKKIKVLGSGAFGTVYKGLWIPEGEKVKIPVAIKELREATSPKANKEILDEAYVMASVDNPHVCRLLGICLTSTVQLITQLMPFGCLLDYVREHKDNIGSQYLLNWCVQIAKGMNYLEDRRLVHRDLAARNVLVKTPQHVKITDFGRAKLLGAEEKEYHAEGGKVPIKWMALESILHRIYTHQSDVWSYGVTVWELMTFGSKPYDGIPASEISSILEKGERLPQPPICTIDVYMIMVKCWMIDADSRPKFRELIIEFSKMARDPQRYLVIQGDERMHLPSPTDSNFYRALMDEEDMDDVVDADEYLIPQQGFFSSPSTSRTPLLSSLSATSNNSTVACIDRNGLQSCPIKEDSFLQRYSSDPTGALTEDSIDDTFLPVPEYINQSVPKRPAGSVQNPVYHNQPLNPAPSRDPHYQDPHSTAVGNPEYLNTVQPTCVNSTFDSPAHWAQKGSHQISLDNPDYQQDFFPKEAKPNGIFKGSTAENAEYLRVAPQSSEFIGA
Outline: as §2

[6] = molecular target: EGFR Δ746-750/C797S mutant (Homo sapiens (Human), UniProt P00533, C797S/DEL746-750); assay: HotSpot radiometric kinase assay, EGFR Δ746-750/C797S mutant; settings: 10 μM ATP
Outline: as §2

[7] = molecular target: EGFR Δ746-750 mutant (Homo sapiens (Human), UniProt P00533, DEL746-750); assay: HotSpot radiometric kinase assay, EGFR Δ746-750 mutant; settings: 10 μM ATP
Outline: as §2

[8] = molecular target: EGFR L858R/T790M/C797S mutant (Homo sapiens (Human), UniProt P00533, C797S/L858R/T790M); assay: HotSpot radiometric kinase assay, EGFR L858R/T790M/C797S mutant; settings: 10 μM ATP
Sequence of EGFR L858R/T790M/C797S mutant (P00533 25-1210 T790M/C797S/L858R): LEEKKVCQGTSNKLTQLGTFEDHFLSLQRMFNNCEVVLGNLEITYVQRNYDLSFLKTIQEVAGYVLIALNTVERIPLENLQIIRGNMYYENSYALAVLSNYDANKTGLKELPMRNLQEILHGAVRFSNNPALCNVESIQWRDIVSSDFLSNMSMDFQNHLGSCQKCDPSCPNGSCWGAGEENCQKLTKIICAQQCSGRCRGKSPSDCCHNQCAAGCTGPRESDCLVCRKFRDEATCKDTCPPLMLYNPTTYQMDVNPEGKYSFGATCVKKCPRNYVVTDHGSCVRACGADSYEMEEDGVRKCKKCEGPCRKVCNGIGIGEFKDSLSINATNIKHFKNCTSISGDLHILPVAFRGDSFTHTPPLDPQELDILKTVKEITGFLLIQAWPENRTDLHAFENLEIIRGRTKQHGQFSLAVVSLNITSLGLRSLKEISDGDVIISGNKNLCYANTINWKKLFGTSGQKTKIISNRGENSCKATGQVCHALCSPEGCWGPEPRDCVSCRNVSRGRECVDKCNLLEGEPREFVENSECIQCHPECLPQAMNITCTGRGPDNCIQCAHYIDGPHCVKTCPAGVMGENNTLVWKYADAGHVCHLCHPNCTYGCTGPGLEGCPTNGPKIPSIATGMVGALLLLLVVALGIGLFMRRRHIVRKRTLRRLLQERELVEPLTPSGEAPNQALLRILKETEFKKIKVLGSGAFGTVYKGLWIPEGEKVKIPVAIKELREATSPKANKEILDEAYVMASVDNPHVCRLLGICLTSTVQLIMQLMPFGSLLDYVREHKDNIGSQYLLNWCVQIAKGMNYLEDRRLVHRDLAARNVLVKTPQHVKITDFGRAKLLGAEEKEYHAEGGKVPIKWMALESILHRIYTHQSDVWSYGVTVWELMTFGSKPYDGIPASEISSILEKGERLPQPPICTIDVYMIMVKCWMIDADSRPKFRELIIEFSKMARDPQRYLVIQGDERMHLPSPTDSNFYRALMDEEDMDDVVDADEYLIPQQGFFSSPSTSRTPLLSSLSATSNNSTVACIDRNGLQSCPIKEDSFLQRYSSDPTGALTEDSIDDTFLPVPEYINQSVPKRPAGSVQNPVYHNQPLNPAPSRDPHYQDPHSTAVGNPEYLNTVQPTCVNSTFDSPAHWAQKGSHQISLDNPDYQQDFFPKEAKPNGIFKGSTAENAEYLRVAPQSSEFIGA
Outline: as §2

[9] = molecular target: EGFR WT (Homo sapiens (Human), UniProt P00533); assay: HotSpot radiometric kinase assay (Reaction Biology), EGFR WT; settings: 10 μM ATP
Sequence of EGFR WT (P00533 25-1210): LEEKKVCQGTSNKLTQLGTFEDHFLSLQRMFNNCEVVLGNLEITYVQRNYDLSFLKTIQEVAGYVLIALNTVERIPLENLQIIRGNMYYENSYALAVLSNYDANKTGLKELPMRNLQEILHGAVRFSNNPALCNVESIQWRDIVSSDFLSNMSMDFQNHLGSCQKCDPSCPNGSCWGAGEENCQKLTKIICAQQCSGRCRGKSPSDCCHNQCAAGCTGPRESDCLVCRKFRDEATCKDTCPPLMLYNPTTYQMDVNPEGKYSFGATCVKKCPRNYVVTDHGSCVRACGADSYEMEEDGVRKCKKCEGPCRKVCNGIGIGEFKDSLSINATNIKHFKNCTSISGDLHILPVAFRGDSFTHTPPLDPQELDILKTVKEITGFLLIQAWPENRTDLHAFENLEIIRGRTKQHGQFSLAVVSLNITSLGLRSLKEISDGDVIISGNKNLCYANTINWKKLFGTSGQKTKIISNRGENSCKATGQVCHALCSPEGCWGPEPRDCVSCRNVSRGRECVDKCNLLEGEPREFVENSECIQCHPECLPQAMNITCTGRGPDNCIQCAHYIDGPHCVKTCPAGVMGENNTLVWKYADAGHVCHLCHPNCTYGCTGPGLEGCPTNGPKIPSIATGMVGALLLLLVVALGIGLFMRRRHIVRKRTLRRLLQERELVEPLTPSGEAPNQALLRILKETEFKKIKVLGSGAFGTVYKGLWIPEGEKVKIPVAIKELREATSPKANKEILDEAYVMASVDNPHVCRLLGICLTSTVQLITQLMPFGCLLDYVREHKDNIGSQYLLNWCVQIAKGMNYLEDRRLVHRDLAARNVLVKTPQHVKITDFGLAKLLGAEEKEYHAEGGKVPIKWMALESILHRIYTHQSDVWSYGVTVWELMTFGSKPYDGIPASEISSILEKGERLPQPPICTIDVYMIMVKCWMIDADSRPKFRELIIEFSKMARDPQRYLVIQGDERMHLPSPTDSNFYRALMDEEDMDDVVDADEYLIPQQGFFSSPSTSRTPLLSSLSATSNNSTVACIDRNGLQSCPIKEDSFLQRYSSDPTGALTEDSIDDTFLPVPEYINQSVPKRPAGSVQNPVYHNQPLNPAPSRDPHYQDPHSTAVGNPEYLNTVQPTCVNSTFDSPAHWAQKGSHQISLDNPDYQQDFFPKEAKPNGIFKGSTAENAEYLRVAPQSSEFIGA
Outline: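 Compounds were preincubated ~20 min with kinase/substrate in pH 7.5 Hepes buffer (MgCl2, EGTA, Brij35, BSA, Na3VO4, DTT, 1% DMSO), then ATP plus 33P-ATP was added to 10 μM final. After 120 min at room temperature, reactions were spotted on P81 filters and washed; IC50 values came from curve fits.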

[10] = molecular target: CLK1 (Homo sapiens (Human), UniProt P49759); assay: Inhibition of CLK1 kinase activity evaluated at Nanosyn (ADP-Glo); settings: ADP-Glo luminescence
Sequence of CLK1 (P49759 whole entry): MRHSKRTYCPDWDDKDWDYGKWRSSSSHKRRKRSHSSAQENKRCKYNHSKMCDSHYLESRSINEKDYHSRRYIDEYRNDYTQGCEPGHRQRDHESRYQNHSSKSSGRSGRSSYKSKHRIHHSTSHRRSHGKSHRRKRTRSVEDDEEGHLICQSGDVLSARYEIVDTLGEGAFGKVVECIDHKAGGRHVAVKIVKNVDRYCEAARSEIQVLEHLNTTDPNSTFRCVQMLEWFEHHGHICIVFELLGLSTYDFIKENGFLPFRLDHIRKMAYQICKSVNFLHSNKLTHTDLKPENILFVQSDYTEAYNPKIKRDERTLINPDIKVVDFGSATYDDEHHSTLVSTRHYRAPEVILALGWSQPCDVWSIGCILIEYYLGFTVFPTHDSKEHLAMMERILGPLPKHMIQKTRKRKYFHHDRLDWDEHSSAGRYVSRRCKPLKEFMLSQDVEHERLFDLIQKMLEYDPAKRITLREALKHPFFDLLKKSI
Outline: as §1

[11] = molecular target: CLK4 (Homo sapiens (Human), UniProt Q9HAZ1); assay: Inhibition of CLK4 kinase activity evaluated at Nanosyn (ADP-Glo); settings: ADP-Glo luminescence
Sequence of CLK4 (Q9HAZ1 whole entry): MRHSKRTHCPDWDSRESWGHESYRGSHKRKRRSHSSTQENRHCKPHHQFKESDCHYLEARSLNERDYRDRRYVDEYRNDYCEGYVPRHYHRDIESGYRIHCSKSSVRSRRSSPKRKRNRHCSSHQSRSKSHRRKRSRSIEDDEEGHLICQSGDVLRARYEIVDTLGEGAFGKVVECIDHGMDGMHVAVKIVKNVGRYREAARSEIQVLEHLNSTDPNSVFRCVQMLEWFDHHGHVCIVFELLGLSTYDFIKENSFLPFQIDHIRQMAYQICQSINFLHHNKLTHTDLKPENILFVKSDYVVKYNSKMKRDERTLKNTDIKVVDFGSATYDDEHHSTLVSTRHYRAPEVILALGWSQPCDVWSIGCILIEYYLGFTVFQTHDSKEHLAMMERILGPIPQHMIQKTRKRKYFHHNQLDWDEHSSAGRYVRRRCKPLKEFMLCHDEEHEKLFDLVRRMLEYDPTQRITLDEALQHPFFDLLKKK
Outline: as §1

Row | IC50 [1] [nM] | IC50 [2] [nM] | IC50 [3] [nM] | IC50 [4] [nM] | IC50 [5] [nM] | IC50 [6] [nM] | IC50 [7] [nM] | IC50 [8] [nM] | IC50 [9] [nM] | IC50 [10] [nM] | IC50 [11] [nM] | SMILES
1 | 3.06 | 4.58 | 78.6 | 217 | 95.2 | 29.8 | 62 | 2.18 | 194 | 1.16 | 1.59 | CCOc1nn(CCO)c2c1/C=C/c1n[nH]c3ccc(cc13)-c1cnn(C)c1O[C@H](C)CNC2 [Example 197, 2-[(10R,17E)-16-ethoxy-8,10-dimethyl-2,8,10,11,12,13-hexahydro-14H-3,5-ethenotripyrazolo[3,4-f:3′,4′-j:4″,3″- n][1,4]oxazacyclopentadecin-14-yl]ethan-1-ol]
2 | 2.81 | 43.6 | 1000 | 175 | 11.9 | 4.99 | 20.6 | 7.49 | 138 | 3.44 | 4.31 | Cc1nn(CCO)c2c1/C=C/c1n[nH]c3cc(Cl)c(cc13)-c1cnn(C)c1O[C@@H](C)CN(C)C2 [Example 125, 2-[(10S,17E)-19-chloro-8,10,12,16-tetramethyl-2,8,10,11,12,13-hexahydro-14H-3,5-ethenotripyrazolo[3,4-f:3′,4′-j:4″,3″-n][1,4]oxazacyclopentadecin-14-yl]ethan-1-ol]
3 | 0.43 | 1.32 | 403 | 256 | 41.5 | 25 | 10.7 | 1.61 | 151 | 0.71 | 0.89 | Cc1c2c(nn1C)/C=C/c1n[nH]c3ccc(cc13)-c1cnn(C)c1O[C@@H](C)CN(C(C)C)C2 [Example 233, (10S,17E)-8,10,14,15-tetramethyl-12-(propan-2-yl)-2,10,11,12,13,15-hexahydro-8H-3,5-ethenotripyrazolo[4,3-f:3′,4′-j:4″,3″- n][1,4]oxazacyclopentadecine]
4 | 2.29 | 64.4 | 19.3 | > 1000 | 87.8 | 42.5 | 147 | 43.9 | 1280 | 1.05 | 1.79 | CC(C)Oc1nn(CCO)c2c1/C=C/c1n[nH]c3cc(F)c(cc13)-c1cnn(C)c1O[C@@H]1CCCN(C2)C1 [Example 199, 2-[(10R,19E)-22-fluoro-8-methyl-18-[(propan-2-yl)oxy]-2,10,11,12,13,15-hexahydro-3,5-etheno-10,14-methanotripyrazolo[3,4-h:3′,4′-l:4″,3″- p][1,6]oxazacycloheptadecin-16(8H)-yl]ethan-1-ol]
5 | 2.44 | 10.2 | 1000 | 219 | 73 | 41.3 | 17.5 | 11.7 | 203 | 0.9 | 1.07 | CCOc1nn(C)c2c1/C=C/c1n[nH]c3ccc(cc13)-c1cnn(C)c1OC1CN(C2)C1 [Example 238, (17E)-16-ethoxy-8,14-dimethyl-2,8,10,11,13,14-hexahydro-3,5-etheno-10,12-methanotripyrazolo[3,4-f:3′,4′-j:4″,3″-n][1,4]oxazacyclopentadecine]
6 | 0.71 | 0.75 | 32.7 | 18.2 | 3.97 | 1.79 | 1.28 | 0.5 | 6.94 | 0.64 | 1.31 | CCN1Cc2c(c(OC(C)C)nn2CC(C)=O)/C=C/c2n[nH]c3ccc(cc23)-c2cnn(C)c2O[C@@H](C)C1 [Example 263, 1-{(10S,17E)-12-ethyl-8,10-dimethyl-16-[(propan-2-yl)oxy]-2,8,10,11.12,13-hexahydro-14H-3,5-ethenotripyrazolo[3,4-f:3′,4′-j:4″,3″-n][1,4]oxazacyclopentadecin-14-yl}propan-2-one]
7 | 0.05 | 0.41 | 168 | 24.5 | 1.47 | 1.93 | 1.88 | 0.7 | 8.81 | 0.21 | 0.55 | Cc1nn(C)c2c1/C=C/c1n[nH]c3ccc(cc13)-c1cnn(C)c1O[C@@H](C)CN(C)[C@@H]2C (single isomer, unassigned) [Example 144]
8 | 0.18 | 1.48 | 126 | 59.1 | 14.6 | 3.06 | 12.9 | 0.46 | 43.8 | 0.24 | 1 | C[C@H]1CN(C)Cc2c(c(O)nn2CCO)/C=C/c2n[nH]c3ccc(cc23)-c2cnn(C)c2O1 [Example 186, (10S,17E)-14-(2-hydroxyethyl)-8,10,12-trimethyl-2,10,11,12,13,14-hexahydro-8H-3,5-ethenotripyrazolo[3,4-f:3′,4′-j:4″,3″-n][1,4]oxazacyclopentadecin-16-ol]
9 | 0.06 | 0.29 | 21.4 | 9.21 | 1.23 | 1.96 | 1.08 | 0.17 | 6.19 | 0.21 | 0.76 | Cc1nn(CCO)c2c1/C=C/c1n[nH]c3ccc(cc13)-c1cnn(C)c1O[C@@H](C)CN(C)C2 [Example 61, 2-[(10S,17E)-8,10,12,16-tetramethyl-2,8,10,11,12,13-hexahydro-14H-3,5-ethenotripyrazolo[3,4-f:3′,4′-j:4″,3″- n][1,4]oxazacyclopentadecin-14-yl]ethan-1-ol]
10 | 3.17 | 0.31 | 306 | 57.8 | 4.75 | 2.17 | 1.77 | 0.18 | 27.8 | 2.31 | 2.46 | CCOc1nn(CC(C)(C)O)c2c1/C=C/c1n[nH]c3ccc(cc13)-c1cnn(C)c1O[C@@H](C)CN(CC)C2 [Example 222, 1-[(10S,17E)-16-ethoxy-12-ethyl-8,10-dimethyl-2,8,10,11,12,13-hexahydro-14H-3,5-ethenotripyrazolo[3,4-f:3′,4′-j:4″,3″-n][1,4]oxazacyclopentadecin-14-yl]-2-methylpropan-2-ol]
11 | 0.36 | 36.6 | 1000 | 329 | 310 | 30.2 | 116 | 25.9 | 908 | 0.38 | 0.43 | Cn1ncc2c1OCCN1CC[C@H](C1)Oc1ccccc1/C=C/c1n[nH]c3ccc-2cc13 [Example 170, (10R,16E)-3-methyl-3,5,6,9,10,19-hexahydro-8H-20,22-etheno-7,10-methanodipyrazolo[3,4-i:4′,3′-m][1,8,5]benzodioxazacyclooctadecine]

From patent publication US20250353864A1, “INDAZOLE CONTAINING MACROCYCLES AND THEIR USE” (BLOSSOMHILL THERAPEUTICS, INC., priority 2022, published 2025)
